Key:
Cytochrome P450 2C9 = Cytochrome P450 2C9 (Homo sapiens, UniProt P11712); conditions: bti-tn-5b1-4; also: in other assays of this panel Not Active means under 50% inhibition at 10 µM
Adenosine receptor A2a = Adenosine receptor A2a (Homo sapiens, UniProt P29274); experiment: DRUGMATRIX: Adenosine A2A radioligand binding (ligand: […]); assay type: cell membranes, HEK293, Membrane; conditions: hek293; Not Active = under 50% inhibition at 10 µM
[1] = DRUGMATRIX: Phorbol Ester radioligand binding (ligand: [3H] PDBu); assay type: cell membranes, Mus musculus, ICR, Brain, Membrane; conditions: Not Active = under 50% inhibition at 10 µM
B2 bradykinin receptor = target: T1, B2 bradykinin receptor (Homo sapiens, UniProt P30411); assay type: cell membranes, Membrane; conditions: chem-1; also: in other assays of this panel Not Active means under 50% inhibition at 10 µM
T1 sequence (P30411 whole entry): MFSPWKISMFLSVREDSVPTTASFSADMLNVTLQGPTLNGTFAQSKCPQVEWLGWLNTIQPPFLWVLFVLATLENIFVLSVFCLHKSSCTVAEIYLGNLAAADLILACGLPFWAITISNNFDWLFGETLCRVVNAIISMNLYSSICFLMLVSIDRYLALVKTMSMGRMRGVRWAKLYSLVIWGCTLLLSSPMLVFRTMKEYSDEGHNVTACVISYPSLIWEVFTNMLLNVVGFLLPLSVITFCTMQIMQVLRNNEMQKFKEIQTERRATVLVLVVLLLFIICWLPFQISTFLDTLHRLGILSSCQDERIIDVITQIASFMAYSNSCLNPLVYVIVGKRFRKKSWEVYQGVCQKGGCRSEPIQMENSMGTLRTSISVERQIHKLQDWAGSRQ

[2] = target: T2, 5-hydroxytryptamine receptor 1A (Rattus norvegicus, UniProt P19327); assay type: cell membranes, CHO-K1, Membrane; conditions: cho-k1; also: in other assays of this panel Not Active means under 50% inhibition at 10 µM
T2 sequence (P19327 whole entry): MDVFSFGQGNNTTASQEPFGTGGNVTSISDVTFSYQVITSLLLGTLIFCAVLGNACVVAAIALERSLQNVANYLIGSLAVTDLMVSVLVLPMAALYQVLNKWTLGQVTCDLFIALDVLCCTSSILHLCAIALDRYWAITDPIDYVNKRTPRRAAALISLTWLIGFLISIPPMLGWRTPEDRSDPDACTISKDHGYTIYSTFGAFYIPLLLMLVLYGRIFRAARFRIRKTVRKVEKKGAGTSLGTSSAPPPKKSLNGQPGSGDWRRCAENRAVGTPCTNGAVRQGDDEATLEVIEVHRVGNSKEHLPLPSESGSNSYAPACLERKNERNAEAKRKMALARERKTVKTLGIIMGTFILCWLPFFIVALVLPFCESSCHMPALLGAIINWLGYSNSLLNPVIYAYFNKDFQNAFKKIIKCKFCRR

Leukotriene C4 synthase = target: T3, Leukotriene C4 synthase (Cavia porcellus, UniProt A6XA80); assay type: tissue-based, Lung;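 also: enzyme inhibition assay of leukotriene C4 synthase, using LTA4 as the substrate; in other assays of this panel Not Active means under 50% inhibition at 10 µM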
T3 sequence (A6XA80 whole entry): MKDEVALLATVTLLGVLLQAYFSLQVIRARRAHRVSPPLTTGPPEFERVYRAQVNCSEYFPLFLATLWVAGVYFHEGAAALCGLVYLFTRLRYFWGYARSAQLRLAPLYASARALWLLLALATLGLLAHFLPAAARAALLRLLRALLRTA

Glycine receptor = Glycine receptor (Rattus norvegicus, UniProt P22771+P24524+P07727+P20781); assay type: cell membranes, Wistar, Spinal cord, Membrane; also: in other assays of this panel Not Active means under 50% inhibition at 10 µM

Sequence of Cytochrome P450 2C9 (P11712 whole entry): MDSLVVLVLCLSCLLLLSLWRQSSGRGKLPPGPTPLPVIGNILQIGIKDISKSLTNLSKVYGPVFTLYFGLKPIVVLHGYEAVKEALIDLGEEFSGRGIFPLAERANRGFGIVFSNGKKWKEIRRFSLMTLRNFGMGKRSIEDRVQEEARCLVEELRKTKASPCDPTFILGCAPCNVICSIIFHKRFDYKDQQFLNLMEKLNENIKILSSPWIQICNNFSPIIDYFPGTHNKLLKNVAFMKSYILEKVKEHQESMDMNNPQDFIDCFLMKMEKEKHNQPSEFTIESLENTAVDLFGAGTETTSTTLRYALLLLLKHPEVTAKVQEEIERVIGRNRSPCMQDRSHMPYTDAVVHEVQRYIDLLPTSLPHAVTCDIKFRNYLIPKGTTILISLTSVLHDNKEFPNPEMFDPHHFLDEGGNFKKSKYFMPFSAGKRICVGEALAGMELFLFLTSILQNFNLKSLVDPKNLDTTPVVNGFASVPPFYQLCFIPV
Sequence of Adenosine receptor A2a (P29274 whole entry): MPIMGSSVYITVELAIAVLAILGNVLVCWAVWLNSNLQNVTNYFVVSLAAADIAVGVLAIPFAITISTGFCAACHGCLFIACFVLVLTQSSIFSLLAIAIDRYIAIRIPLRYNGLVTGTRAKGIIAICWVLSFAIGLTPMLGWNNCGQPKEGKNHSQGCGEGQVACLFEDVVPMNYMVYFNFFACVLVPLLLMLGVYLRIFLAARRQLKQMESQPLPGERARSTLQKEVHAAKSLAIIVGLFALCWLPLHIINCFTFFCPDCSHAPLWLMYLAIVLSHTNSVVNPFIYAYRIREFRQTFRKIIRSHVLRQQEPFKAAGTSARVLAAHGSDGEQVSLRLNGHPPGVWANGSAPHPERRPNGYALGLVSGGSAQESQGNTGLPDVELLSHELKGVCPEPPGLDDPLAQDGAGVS

CN(C)C(=N)NC(=N)N [METFORMIN]
Not Active: IC50 (Cytochrome P450 2C9) | Ki (Cytochrome P450 2C9) | IC50 (Adenosine receptor A2a) | IC50 [1] | Ki [1] | IC50 (B2 bradykinin receptor) | IC50 [2] | IC50 (Leukotriene C4 synthase) | IC50 (Glycine receptor)

C[C@]12CC[C@H]3[C@@H](CCC4=CC(=O)CC[C@@H]43)[C@@H]1CC[C@@H]2O [NANDROLONE]
Not Active: IC50 (Cytochrome P450 2C9) | Ki (Cytochrome P450 2C9) | IC50 (Adenosine receptor A2a) | IC50 [1] | Ki [1] | IC50 (B2 bradykinin receptor) | IC50 [2] | IC50 (Leukotriene C4 synthase) | IC50 (Glycine receptor)

CN(C)C(=O)Oc1cccc([N+](C)(C)C)c1.[Br-] [NEOSTIGMINE BROMIDE]
Not Active: IC50 (Cytochrome P450 2C9) | Ki (Cytochrome P450 2C9) | IC50 (Adenosine receptor A2a) | IC50 [1] | Ki [1] | IC50 (B2 bradykinin receptor) | IC50 [2] | IC50 (Leukotriene C4 synthase) | IC50 (Glycine receptor)

NC(=O)c1cccnc1 [NIACINAMIDE]
Not Active: IC50 (Cytochrome P450 2C9) | Ki (Cytochrome P450 2C9) | IC50 (Adenosine receptor A2a) | IC50 [1] | Ki [1] | IC50 (B2 bradykinin receptor) | IC50 [2] | IC50 (Leukotriene C4 synthase) | IC50 (Glycine receptor)

CS(=O)(=O)Nc1ccc([N+](=O)[O-])cc1Oc1ccccc1 [NIMESULIDE]
Not Active: IC50 (Cytochrome P450 2C9) | Ki (Cytochrome P450 2C9) | IC50 (Adenosine receptor A2a) | IC50 [1] | Ki [1] | IC50 (B2 bradykinin receptor) | IC50 [2] | IC50 (Leukotriene C4 synthase) | IC50 (Glycine receptor)

CN1C(=O)CN=C(c2ccccc2)c2cc([N+](=O)[O-])ccc21 [NIMETAZEPAM]
Not Active: IC50 (Cytochrome P450 2C9) | Ki (Cytochrome P450 2C9) | IC50 (Adenosine receptor A2a) | IC50 [1] | Ki [1] | IC50 (B2 bradykinin receptor) | IC50 [2] | IC50 (Leukotriene C4 synthase) | IC50 (Glycine receptor)

C[C@@H]1O[C@@H](O[C@H]2C[C@@H](O)[C@]3(CO)[C@H]4[C@H](O)C[C@]5(C)[C@@H](C6=CC(=O)OC6)CC[C@]5(O)[C@@H]4CC[C@]3(O)C2)[C@H](O)[C@H](O)[C@H]1O [OUABAIN]
Not Active: IC50 (Cytochrome P450 2C9) | Ki (Cytochrome P450 2C9) | IC50 (Adenosine receptor A2a) | IC50 [1] | Ki [1] | IC50 (B2 bradykinin receptor) | IC50 [2] | IC50 (Leukotriene C4 synthase) | IC50 (Glycine receptor)

NC(=O)N1c2ccccc2CC(=O)c2ccccc21 [OXCARBAZEPINE]
Not Active: IC50 (Cytochrome P450 2C9) | Ki (Cytochrome P450 2C9) | IC50 (Adenosine receptor A2a) | IC50 [1] | Ki [1] | IC50 (B2 bradykinin receptor) | IC50 [2] | IC50 (Leukotriene C4 synthase) | IC50 (Glycine receptor)

COc1ccnc(C[S+]([O-])c2nc3ccc(OC(F)F)cc3[nH]2)c1OC (configuration not stated) [PANTOPRAZOLE]
Not Active: IC50 (Cytochrome P450 2C9) | Ki (Cytochrome P450 2C9) | IC50 (Adenosine receptor A2a) | IC50 [1] | Ki [1] | IC50 (B2 bradykinin receptor) | IC50 [2] | IC50 (Leukotriene C4 synthase) | IC50 (Glycine receptor)

CCc1ccc(CCOc2ccc(CC3SC(=O)NC3=O)cc2)nc1 (configuration not stated) [PIOGLITAZONE]
Not Active: IC50 (Cytochrome P450 2C9) | Ki (Cytochrome P450 2C9) | IC50 (Adenosine receptor A2a) | IC50 [1] | Ki [1] | IC50 (B2 bradykinin receptor) | IC50 [2] | IC50 (Leukotriene C4 synthase) | IC50 (Glycine receptor)

CCCNC(C)C(=O)Nc1ccccc1C (configuration not stated) [PRILOCAINE]
Not Active: IC50 (Cytochrome P450 2C9) | Ki (Cytochrome P450 2C9) | IC50 (Adenosine receptor A2a) | IC50 [1] | Ki [1] | IC50 (B2 bradykinin receptor) | IC50 [2] | IC50 (Leukotriene C4 synthase) | IC50 (Glycine receptor)

CCN(CC)CCNC(=O)c1ccc(N)cc1 [PROCAINAMIDE]
Not Active: IC50 (Cytochrome P450 2C9) | Ki (Cytochrome P450 2C9) | IC50 (Adenosine receptor A2a) | IC50 [1] | Ki [1] | IC50 (B2 bradykinin receptor) | IC50 [2] | IC50 (Leukotriene C4 synthase) | IC50 (Glycine receptor)

CCN(CC)CCCC(C)Nc1c2ccc(Cl)cc2nc2ccc(OC)cc12 (configuration not stated) [QUINACRINE]
Not Active: IC50 (Cytochrome P450 2C9) | Ki (Cytochrome P450 2C9) | IC50 (Adenosine receptor A2a) | IC50 [1] | Ki [1] | IC50 (B2 bradykinin receptor) | IC50 [2] | IC50 (Leukotriene C4 synthase) | IC50 (Glycine receptor)

C[C@]12C=CC(=O)C=C1CC[C@H]1[C@@H]3C[C@@H](O)[C@](O)(C(=O)CO)[C@@]3(C)C[C@H](O)[C@@]12F [TRIAMCINOLONE]
Not Active: IC50 (Cytochrome P450 2C9) | Ki (Cytochrome P450 2C9) | IC50 (Adenosine receptor A2a) | IC50 [1] | Ki [1] | IC50 (B2 bradykinin receptor) | IC50 [2] | IC50 (Leukotriene C4 synthase) | IC50 (Glycine receptor)

CC[C@]1(O)C[C@@H]2CN(CCc3c([nH]c4ccccc34)[C@@](C(=O)OC)(c3cc4c(cc3OC)N(C)[C@H]3[C@@](O)(C(N)=O)[C@H](O)[C@]5(CC)C=CCN6CC[C@]43[C@@H]65)C2)C1 [VINDESINE]
Not Active: IC50 (Cytochrome P450 2C9) | Ki (Cytochrome P450 2C9) | IC50 (Adenosine receptor A2a) | IC50 [1] | Ki [1] | IC50 (B2 bradykinin receptor) | IC50 [2] | IC50 (Leukotriene C4 synthase) | IC50 (Glycine receptor)

CCN(C(C)=O)c1cccc(-c2ccnc3c(C#N)cnn23)c1 [ZALEPLON]
Not Active: IC50 (Cytochrome P450 2C9) | Ki (Cytochrome P450 2C9) | IC50 (Adenosine receptor A2a) | IC50 [1] | Ki [1] | IC50 (B2 bradykinin receptor) | IC50 [2] | IC50 (Leukotriene C4 synthase) | IC50 (Glycine receptor)

COBALTOUS CHLORIDE
Not Active: IC50 (Cytochrome P450 2C9) | Ki (Cytochrome P450 2C9) | IC50 (Adenosine receptor A2a) | Ki (Adenosine receptor A2a) | IC50 [1] | Ki [1] | IC50 (B2 bradykinin receptor) | Ki (B2 bradykinin receptor) | IC50 [2] | Ki [2] | IC50 (Leukotriene C4 synthase) | Ki (Leukotriene C4 synthase) | IC50 (Glycine receptor) | Ki (Glycine receptor)

COLISTIN
Not Active: IC50 (Cytochrome P450 2C9) | Ki (Cytochrome P450 2C9) | IC50 (Adenosine receptor A2a) | Ki (Adenosine receptor A2a) | IC50 [1] | Ki [1] | IC50 (B2 bradykinin receptor) | Ki (B2 bradykinin receptor) | IC50 [2] | Ki [2] | IC50 (Leukotriene C4 synthase) | Ki (Leukotriene C4 synthase) | IC50 (Glycine receptor) | Ki (Glycine receptor)

From ChEMBL document CHEMBL1909046, “DrugMatrix in vitro pharmacology data”
